{"source": "patent US20080221048A1", "about": "“Lyophilized azithromycin formulation” (APP Pharmaceuticals, LLC., priority 2004, published 2008)", "origin": "cited, not measured here", "conditions": "for time diluted azithromycin for injection is stable: diluted to 1.0-2.0 mg/mL", "note": "Like-named read-outs stand apart in the source and are kept apart here."}
{"compound": "CC[C@H]1OC(=O)[C@H](C)[C@@H](O[C@H]2C[C@@](C)(OC)[C@@H](O)[C@H](C)O2)[C@H](C)[C@@H](OC2O[C@H](C)C[C@H](N(C)C)[C@H]2O)C(C)(O)C[C@@H](C)CN(C)[C@H](C)[C@@H](O)[C@]1(C)O", "note": "(stereo in doubt) [azithromycin, (2R,3S,4R,5R,8R,10R,11R,12S,13S,14R)-13-[(2,6-dideoxy-3-C-methyl-3-O-methyl-α-L-ribo-hexo-pyranosyl)oxy]-2-ethyl-3,4,10-trihydroxy-3,5,6,8,10,12,14-heptamethyl-11-[[3,4,6-trideoxy-3-(dimethylamino)-β-D-xylo-hexopyranosyl]oxy]-1-oxa-6-azacyclopentadecan-15-one]", "values": [{"measurement": "time diluted azithromycin for injection is stable", "setting": "at or below room temperature (30° C. or 86° F.)", "value": 24, "unit": "h"}, {"measurement": "time diluted azithromycin for injection is stable", "setting": "stored under refrigeration (5° C. or 41° F.)", "value": 170, "unit": "h"}, {"measurement": "time reconstituted azithromycin solution is stable", "setting": "reconstituted solution (about 100 mg/mL), stored below 30° C. or 86° F.", "value": 24, "unit": "h"}]}
